Laboratory results: patent US10174037B2, “Dihydropyrazolopyrimidinone compounds as PDE2 inhibitors” (Merck Sharp & Dohme Corp., priority 2015, dated 2019)
Where two headings read alike, the source gives them in different places.

Columns and labels:
human PDE2A1 = human PDE2A1 (Homo sapiens (Human), UniProt O00408); assay: PDE selectivity IMAP FP assay, human PDE2A1; format: biochemical; conditions: Human PDE2
Summary of the method: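 IMAP fluorescence polarization assay; PDE2 substrate 50 nM FAM-cAMP containing 1000 nM cGMP, enzyme diluted for 20% substrate conversion, in 10 mM Tris HCl pH 7.2, 10 mM MgCl2, 1 mM DTT. Reaction 60 min at room temperature, stopped with IMAP binding solution; polarization read after 1 h. Ki reported.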

Rhesus PDE2A3 = Rhesus PDE2A3 (Macaca mulatta, UniProt B3VTJ2); assay: PDE2 fluorescence polarization (IMAP FP) assay, rhesus PDE2A3; format: biochemical, rhesus macaque
Description: A Labcyte Echo 555 (Labcyte, Sunnyvale, Calif.) is used to dispense 200 nL from each well of the titration plate to the 384 well assay plate. Ten microliters of a solution of enzyme (1/2000 final dilution from aliquots; sufficient to produce 20% substrate conversion) was added to the assay plate. Next 10 uL of a separate solution of the substrate FAM-labeled cAMP (50 nM final concentration product # R7506 from Molecular Devices) and the activator cGMP (1 uM final concentration), prepared in the assay buffer (10 mM Tris HCl, pH 7.2, 10 mM MgCl2, 0.05% NaN3 0.01% Tween-20, and 1 mM DTT) was added to the assay plate and shaken to mix. The reaction is allowed to proceed at room temperature for 60 minutes. A binding solution is then made from the kit components, comprised of 80% Solution A, 20% Solution B and binding reagent at a volume of 1/600 the total binding solution. The enzymatic reaction is stopped by addition of 60 μL of the binding solution to each well of the assay plates and the plates are sealed and shaken for 30 seconds. The plate was incubated at room temperature for at least one hour prior to determining the fluorescence polarization (FP). The parallel and perpendicular fluorescence of each well of the plate was measured using a Tecan Genios Pro plate reader (Tecan, Switzerland) or Perkin Elmer EnVision™ plate reader (Waltham, Mass.). Fluorescence polarization (mP) was calculated from the parallel (S) and perpendicular (P) fluorescence of each sample well and the analogous values for the median control well, containing only substrate (So and Po), using the following equation: Polarization (mP)=1000*(S/So−P/Po)/(S/So+P/Po).
Dose-inhibition profiles for each compound were characterized by fitting the mP data to a four-parameter equation given below.
An apparent (KM) for FAM-labeled cAMP of ˜10 uM was used.

[1] = Lab B, read-out: Human PDE2 Ki (nM) Lab B
[2] = Lab B, read-out: Rhesus PDE2 Ki (nM) Lab B
[3] = Lab A, read-out: Human PDE2 Ki (nM) Lab A
[4] = Lab A, read-out: Rhesus PDE2 Ki (nM) Lab A

human PDE2A1, sequence (O00408 other isoform, or with tags, fused parts or gaps): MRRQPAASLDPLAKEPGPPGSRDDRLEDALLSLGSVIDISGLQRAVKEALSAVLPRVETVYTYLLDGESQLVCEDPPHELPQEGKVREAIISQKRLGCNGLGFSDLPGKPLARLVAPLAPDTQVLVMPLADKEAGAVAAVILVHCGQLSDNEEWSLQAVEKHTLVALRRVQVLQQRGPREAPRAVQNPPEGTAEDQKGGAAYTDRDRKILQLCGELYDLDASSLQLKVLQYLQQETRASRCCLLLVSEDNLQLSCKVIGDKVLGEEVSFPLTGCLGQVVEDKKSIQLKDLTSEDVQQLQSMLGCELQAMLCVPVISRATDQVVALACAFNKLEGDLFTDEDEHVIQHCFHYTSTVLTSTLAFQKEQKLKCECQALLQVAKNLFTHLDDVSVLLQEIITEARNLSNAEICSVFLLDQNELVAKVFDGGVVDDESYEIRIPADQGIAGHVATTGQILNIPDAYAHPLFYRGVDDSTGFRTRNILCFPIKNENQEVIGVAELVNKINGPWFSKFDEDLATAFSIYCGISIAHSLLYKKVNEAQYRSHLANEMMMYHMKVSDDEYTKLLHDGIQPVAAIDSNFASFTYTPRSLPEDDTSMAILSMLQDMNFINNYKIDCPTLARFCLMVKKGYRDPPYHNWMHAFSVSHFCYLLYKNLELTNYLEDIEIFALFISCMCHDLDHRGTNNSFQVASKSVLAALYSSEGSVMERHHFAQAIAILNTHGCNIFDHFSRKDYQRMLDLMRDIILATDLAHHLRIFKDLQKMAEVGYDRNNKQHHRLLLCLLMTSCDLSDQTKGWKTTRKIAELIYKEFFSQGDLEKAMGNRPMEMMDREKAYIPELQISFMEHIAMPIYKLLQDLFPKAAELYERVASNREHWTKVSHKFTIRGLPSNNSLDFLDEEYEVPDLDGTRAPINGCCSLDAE
Rhesus PDE2A3, sequence (B3VTJ2 1-941): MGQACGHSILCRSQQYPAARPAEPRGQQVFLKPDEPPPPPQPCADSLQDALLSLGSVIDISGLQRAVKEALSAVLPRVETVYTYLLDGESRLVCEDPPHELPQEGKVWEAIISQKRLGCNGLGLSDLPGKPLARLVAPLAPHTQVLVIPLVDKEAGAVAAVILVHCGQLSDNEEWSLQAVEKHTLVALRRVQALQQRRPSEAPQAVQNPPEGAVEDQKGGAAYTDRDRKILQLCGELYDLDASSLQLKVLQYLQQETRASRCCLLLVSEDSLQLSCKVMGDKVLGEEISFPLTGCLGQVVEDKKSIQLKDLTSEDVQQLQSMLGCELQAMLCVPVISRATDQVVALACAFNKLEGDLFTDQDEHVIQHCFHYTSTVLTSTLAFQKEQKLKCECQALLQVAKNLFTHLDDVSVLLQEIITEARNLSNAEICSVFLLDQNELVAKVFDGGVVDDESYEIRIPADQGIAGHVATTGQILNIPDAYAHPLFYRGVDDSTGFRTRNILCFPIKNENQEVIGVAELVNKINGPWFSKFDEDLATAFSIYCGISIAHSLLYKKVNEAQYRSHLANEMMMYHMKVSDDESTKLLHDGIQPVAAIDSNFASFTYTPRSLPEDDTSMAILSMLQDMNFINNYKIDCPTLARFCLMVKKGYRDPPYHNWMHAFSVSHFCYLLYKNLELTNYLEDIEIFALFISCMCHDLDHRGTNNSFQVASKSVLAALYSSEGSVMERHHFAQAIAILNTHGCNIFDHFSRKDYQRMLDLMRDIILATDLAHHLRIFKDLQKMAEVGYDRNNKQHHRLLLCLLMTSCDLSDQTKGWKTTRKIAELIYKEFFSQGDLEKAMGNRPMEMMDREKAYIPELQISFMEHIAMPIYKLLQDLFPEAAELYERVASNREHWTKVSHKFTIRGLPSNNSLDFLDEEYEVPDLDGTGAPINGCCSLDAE

SMILES | Ki (human PDE2A1; [1]) [nM] | Ki (Rhesus PDE2A3; [2]) [nM] | Ki (human PDE2A1; [3]) [nM] | Ki (Rhesus PDE2A3; [4]) [nM]
CCC(c1ccc(C(C)(F)F)cc1F)n1nc(CF)c2c(=O)[nH]c(N(C)C)nc21 (single isomer, unassigned) [Example 214, (R)- or (S)-1-(1-(4-(1,1-Difluoroethyl)-2-fluorophenyl)propyl)-6-(dimethylamino)-3-(fluoromethyl)-1H-pyrazolo[3,4-d]pyrimidin-4(5H)-one] | 0.045 | 0.05 | – | –
O=c1[nH]c(O)nc2c1c(CF)nn2C(c1ccc(OC(F)(F)F)c(F)c1)C1CC1 (single isomer, unassigned) [Example 45] | 28 | 29 | – | –
CC(c1ccc(C(F)(F)F)cc1)n1nc(C(F)(F)F)c2c(=O)[nH]c(O)nc21 (single isomer, unassigned) [Example 254, (R)- or (S)-6-Hydroxy-3-(trifluoromethyl)-1-(1-(4-(trifluoromethyl)phenyl)ethyl)-1H-pyrazolo[3,4-d]pyrimidin-4(5H)-one] | 121 | 102 | – | –
CN(C)c1nc2c(c(CF)nn2C(c2ccc(OC(F)F)c(F)c2)C2CC2)c(=O)[nH]1 (single isomer, unassigned) [Example 189, (S)- or (R)-1-(Cyclopropyl(4-(difluoromethoxy)-3-fluorophenyl)methyl)-6-(dimethylamino)-3-(fluoromethyl)-1H-pyrazolo[3,4-d]pyrimidin-4(5H)-one] | 0.35 | 0.62 | – | –
CN(C)c1nc2c(c(CO)nn2C(c2ccc(C(C)(F)F)cc2)C2CC2)c(=O)[nH]1 (single isomer, unassigned) [Example 141, (S)- or (R)-1-(Cyclopropyl(4-(1,1-difluoroethyl)phenyl)methyl)-6-(dimethylamino)-3-(hydroxymethyl)-1H-pyrazolo[3,4-d]pyrimidin-4(5H)-one] | 0.56 | 0.64 | – | –
CC(C)c1ccc(C(C2CC2)n2nc(CO)c3c(=O)[nH]c(N(C)C)nc32)cc1 (single isomer, unassigned) [Example 77, (S)- or (R)-1-(Cyclopropyl(4-isopropxlphenyl)methyl)-6-(dimethylamino)-3-(hydroxymethyl)-1H-pyrazolo[3,4-d]pyrimidin-4(5H)-one] | 0.069 | 0.084 | – | –
O=c1[nH]c(O)nc2c1c(CC(F)(F)F)nn2C(c1ccc(OC(F)(F)F)c(F)c1)C1CC1 (single isomer, unassigned) [Example 252, (R)- or (S)-1-(Cyclopropyl(3-fluoro-4-(trifluoromethoxy)phenyl)methyl)-6-hydroxy-3-(2,2,2-trifluoroethyl)-1H-pyrazolo[3,4-d]pyrimidin-4(5H)-one] | 73 | 68 | – | –
CC(C)C(c1ccc(C(C)(F)F)c(F)c1)n1nc(CF)c2c(=O)[nH]c(N(C)C)nc21 (single isomer, unassigned) [Example 218, (R)- or (S)-1-(1-(4-(1,1-Difluoroethyl)-3-fluorophenyl)-2-methylpropyl)-6-(dimethylamino)-3-(fluoromethyl)-1H-pyrazolo[3,4-d]pyrimidin-4(5H)-one] | 0.16 | 0.21 | – | –
CNc1nc2c(c(C)nn2C(C)c2ccc(C(F)(F)F)cc2)c(=O)[nH]1 (stereo not drawn) [Example 269, 3-Methyl-6-(methylamino)-1-(1-(4-(trifluoromethyl)phenyl)ethyl)-1,5-dihydro-4H-pyrazolo[3,4-d]pyrimidin-4-one] | – | – | 85 | 139
CN(C)c1nc2c(c(CF)nn2C(c2ccc(C(C)(F)F)cc2)C2CC2)c(=O)[nH]1 (single isomer, unassigned) [Example 212, (R)- or (S)-1-(Cyclopropyl(4-(1,1-difluoroethyl)phenyl)methyl)-6-(dimethylamino)-3-(fluoromethyl)-1H-pyrazolo[3,4-d]pyrimidin-4(5H)-one] | 0.61 | 0.91 | – | –
CN(C)c1nc2c(c(CO)nn2C(c2ccc(C(F)(F)F)cc2)C2CC2)c(=O)[nH]1 (single isomer, unassigned) [Example 75, (S)- or (R)-1-(Cyclopropyl(4-(trifluoromethyl)phenyl)methyl)-6-(dimethylamino)-3-(hydroxymethyl)-1H-pyrazolo[3,4-d]pyrimidin-4(5H)-one] | 1.1 | 0.79 | – | –
CC(c1ccc(C(F)(F)F)cc1)n1nc(CC(F)(F)F)c2c(=O)[nH]c(O)nc21 (single isomer, unassigned) [Example 256, (R)- or (S)-6-Hydroxy-3-(2,2,2-trifluoroethyl)-1-{1-[4-(trifluoromethyl)phenyl]ethyl}-1,5-dihydro-4H-pyrazolo[3,4-d]pyrimidin-4-one] | – | – | 126 | 166
CCC(c1ccc(C(C)(F)F)cc1)n1nc(CF)c2c(=O)[nH]c(N(C)C)nc21 (single isomer, unassigned) [Example 205, (S)- or (R)-1-(1-(4-(1,1-Difluoroethyl)phenyl)propyl)-6-(dimethylamino)-3-(fluoromethyl)-1H-pyrazolo[3,4-d]pyrimidin-4(5H)-one] | 0.038 | 0.072 | – | –
O=c1[nH]c(O)nc2c1c(C(F)F)nn2C(c1ccc(C(F)(F)F)cc1)C1CC1 (single isomer, unassigned) [Example 280, (S)- or (R)-1-(Cyclopropyl(4-(trifluoromethyl)phenyl)methyl)-3-(difluoromethyl)-6-hydroxy-1H-pyrazolo[3,4-d]pyrimidin-4(5H)-one] | – | 85 | – | –
CC(c1ccc(C(F)(F)F)c(F)c1)n1nc(CC(F)(F)F)c2c(=O)[nH]c(O)nc21 (single isomer, unassigned) [Example 234, (R)- or (S)-1-(1-(3-Fluoro-4-(trifluoromethyl)phenyl)ethyl)-6-hydroxy-3-(2,2,2-trifluoroethyl)-1H-pyrazolo[3,4-d]pyrimidin-4(5H)-one] | – | 180 | – | –
O=c1[nH]c(O)nc2c1c(CO)nn2C(c1ccc(C(F)(F)F)cc1)C1CC1 (single isomer, unassigned) [Example 14] | – | 410 | – | –
O=c1[nH]c(O)nc2c1c(CC(F)(F)F)nn2C(c1ccc(C(F)(F)F)cc1)C1CC1 (single isomer, unassigned) [Example 227] | – | 12 | – | –
CC(C)(C)C(c1ccc(C(F)(F)F)cc1)n1nc(CC(F)(F)F)c2c(=O)[nH]c(O)nc21 (single isomer, unassigned) [Example 263, (S)- or (R)-1-(2,2-Dimethyl-1-(4-(trifluoromethyl)phenyl)propyl)-6-hydroxy-3-(2,2,2-trifluoroethyl)-1H-pyrazolo[3,4-d]pyrimidin-4(5H)-one] | – | 5890 | – | –
O=c1[nH]c(O)nc2c1c(CC(F)(F)F)nn2C(c1ccc(OC(F)(F)F)cc1)C1CC1 (single isomer, unassigned) [Example 242, (R)- or (S)-1-(Cyclopropyl(4-(trifluoromethoxy)phenyl)methyl)-6-hydroxy-3-(2,2,2-trifluoroelhyl)-1H-pyrazolo[3,4-d]pyrimidin-4(5H)-one] | – | 150 | – | –
CC(c1ccc(S(F)(F)(F)(F)F)cc1)n1nc(CO)c2c(=O)[nH]c(O)nc21 (single isomer, unassigned) [Example 20, (R)- or (S)-6-Hydroxy-3-(hydroxymethyl)-1-{1-[4-(pentafluorosulfanyl)phenyl]ethyl}-1,5-dihydro-4H-pyrazolo[3,4-d]pyrimidin-4-one] | – | – | – | ~684
CC1(C(c2ccc(C(F)(F)F)cc2)n2nc(CC(F)(F)F)c3c(=O)[nH]c(O)nc32)CC1 (single isomer, unassigned) [Example 245, (S)- or (R)-6-Hydroxy-l-((1-methylcyclopropyl)(4-(trifluoromethyl)phenyl)methyl)-3-(2,2,2-trifluoroethyl)-1H-pyrazolo[3,4-d]pyrimidin-4(5H)-one] | – | 698 | – | –
O=c1[nH]c(O)nc2c1c(CO)nn2C(c1ccc(C(F)(F)F)cc1)C1CC1 (single isomer, unassigned) [Example 15, (S) or (R)-1-(Cyclopropyl(4-(trifluoromethyl)phenyl)methyl)-6-hydroxy-3-(hydroxymethyl)-1H-pyrazolo[3,4-d]pyrimidin-4(5H)-one] | – | 17 | – | –
CC(C)C(c1ccc(C(F)(F)F)c(F)c1)n1nc(CF)c2c(=O)[nH]c(N(C)C)nc21 (single isomer, unassigned) [Example 220, (R)- or (S)-6-(Dimethylamino)-1-(1-(3-fluoro-4-(trifluoromethyl)phenyl)-2-methylpropyl)-3-(fluoromethyl)-1H-pyrazolo[3,4-d]pyrimidin-4(5H)-one] | – | 0.5 | – | –
